# Activity calls are given as the source filed them.
# What was measured:
# [1] = molecular target: T1, Rac GTPase-activating protein 1 (Homo sapiens, UniProt Q9H0H5); test: blockers of MgcRacGAP-driven Rac1 GTP hydrolysis – biochemical, ADP Hunter fluorescence, primary and confirmatory, confirmation (AID 624330); type: functional
# T1 sequence (Q9H0H5 whole entry): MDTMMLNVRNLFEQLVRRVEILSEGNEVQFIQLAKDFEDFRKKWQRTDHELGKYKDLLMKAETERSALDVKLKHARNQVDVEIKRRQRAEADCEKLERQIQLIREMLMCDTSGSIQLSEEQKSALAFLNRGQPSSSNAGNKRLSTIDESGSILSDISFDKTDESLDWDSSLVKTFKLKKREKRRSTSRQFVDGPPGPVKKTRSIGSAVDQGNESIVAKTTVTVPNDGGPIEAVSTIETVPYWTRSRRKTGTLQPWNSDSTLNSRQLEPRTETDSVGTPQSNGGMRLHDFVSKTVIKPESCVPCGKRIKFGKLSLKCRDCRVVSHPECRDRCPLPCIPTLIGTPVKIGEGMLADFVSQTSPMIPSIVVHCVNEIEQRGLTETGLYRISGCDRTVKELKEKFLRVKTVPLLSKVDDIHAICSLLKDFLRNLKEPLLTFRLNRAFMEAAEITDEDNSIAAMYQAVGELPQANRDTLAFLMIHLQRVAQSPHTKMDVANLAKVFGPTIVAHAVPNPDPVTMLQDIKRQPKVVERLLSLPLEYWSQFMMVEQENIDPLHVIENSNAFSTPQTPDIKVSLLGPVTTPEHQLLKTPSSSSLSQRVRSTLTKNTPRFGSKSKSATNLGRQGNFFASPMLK
# [2] = molecular target: Large T antigen (Simian virus 40, UniProt P03070); type: functional, Betapolyomavirus macacae;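 also: Confirmatory-stage PubChem screen for compounds that inhibit SV40 T antigen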
# [3] = molecular target: Glyceraldehyde-3-phosphate dehydrogenase (Homo sapiens, UniProt P04406)
# [4] = luciferase reporter signal suppression in cells – H4 neuroglioma cells, luminescence, dose response (AID 1990); type: functional, cell-based
# [5] = alpha-synuclein stem-loop luciferase translation blockers – H4 neuroglioma cells, luminescence, confirmation (AID 1988); type: functional, cell-based
# [6] = Luminescence Cell-Based Dose Response HTS to Identify Inhibitors of 5'UTR Stem-Loop Driven Prion Protein mRNA Translation in H4 Neuroglioblastoma Cells. [Related pubchem assays: 1827 (Project Summary), 1813 (Primary HTS)]; type: functional
# [7] = molecular target: Cytochrome P450 2C19 (Homo sapiens, UniProt P33261); test: Cytochrome panel assay with activity outcomes. Panel member name: p450-cyp2c19 Compounds with AC50 equal or less than 10 uM are considered active; type: functional
# [8] = molecular target: Cytochrome P450 3A4 (Homo sapiens, UniProt P08684);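 also: CYP3A4 tested as one member of a cytochrome P450 panel screen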
# [9] = molecular target: T2, Polyadenylate-binding protein 1 (Homo sapiens, UniProt P11940); test: MLLE binding blockers, Cy5 peptide tracer – biochemical, fluorescence polarization, Cy5-PAM2 peptide, secondary, miRNA deadenylation inhibitor project, dose response (AID 602260); type: functional; details: read-out: IC50_Mean
# [10] = molecular target: T2, Polyadenylate-binding protein 1; test: MLLE domain peptide-binding blockers, IC50 – biochemical, fluorescence polarization, FITC-PAM2 peptide, dose response (AID 602259); type: functional; details: read-out: IC50_Mean
# [11] = cells; type: functional
# [12] = viability of uninfected HEp-2 cells – cell-based, HTS, cytotoxicity control for RSV inhibitor project, dose response (AID 2410); type: functional; details: human respiratory syncytial virus
# [13] = molecular target: T3, Cytochrome P450 1A2 (Homo sapiens, UniProt P05177);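 also: PubChem cytochrome P450 panel assay, CYP1A2 panel member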
# T3 sequence (P05177 whole entry): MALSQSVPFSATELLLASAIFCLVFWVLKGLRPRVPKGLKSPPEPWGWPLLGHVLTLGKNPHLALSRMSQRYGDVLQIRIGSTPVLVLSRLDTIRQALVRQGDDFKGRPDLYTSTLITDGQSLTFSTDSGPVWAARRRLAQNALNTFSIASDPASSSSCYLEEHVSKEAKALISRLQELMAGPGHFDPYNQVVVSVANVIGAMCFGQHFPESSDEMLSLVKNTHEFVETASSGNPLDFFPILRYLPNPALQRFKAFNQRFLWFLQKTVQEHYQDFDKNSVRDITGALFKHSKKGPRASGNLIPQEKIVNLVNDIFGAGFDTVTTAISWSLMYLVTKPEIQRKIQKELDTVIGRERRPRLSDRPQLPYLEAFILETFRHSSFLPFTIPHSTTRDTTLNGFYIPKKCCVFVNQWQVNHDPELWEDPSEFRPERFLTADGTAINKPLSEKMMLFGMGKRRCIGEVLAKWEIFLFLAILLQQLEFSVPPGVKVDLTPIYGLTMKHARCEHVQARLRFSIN
# [14] = molecular target: Cytochrome P450 2D6 (Homo sapiens, UniProt P10635);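 also: CYP2D6 member of a cytochrome P450 panel assay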
# [15] = tested on: H9c2; test: cells; type: functional, cell-based; details: Rattus norvegicus, H9c2, Myocardium;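 also: confirmatory concentration-response retest of ultra-high-throughput screening hits for modulation of myocardial damage; cell death induced by hydrogen peroxide oxidative stress; compound pretreatment for 60 min then peroxide exposure for 2 h; potency is for protecting the cells against peroxide damage rather than for killing them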
# [16] = tested on: P388/ADR; test: cells; type: functional; details: Mus musculus
# [17] = tested on: SN12K1; test: cells; type: functional; details: Homo sapiens
# [18] = molecular target: T4, Microphthalmia-associated transcription factor (Homo sapiens, UniProt O75030); test: reducers of TRPM1 reporter luminescence, concentration series – cell-based, SK-MEL-5, cherry-picked, set 3, MITF inhibitor project, dose response (AID 493073); type: functional;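 also: SK-MEL-5 melanoma cells with luciferase driven by the MITF target TRPM1 promoter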
# T4 sequence (O75030 whole entry): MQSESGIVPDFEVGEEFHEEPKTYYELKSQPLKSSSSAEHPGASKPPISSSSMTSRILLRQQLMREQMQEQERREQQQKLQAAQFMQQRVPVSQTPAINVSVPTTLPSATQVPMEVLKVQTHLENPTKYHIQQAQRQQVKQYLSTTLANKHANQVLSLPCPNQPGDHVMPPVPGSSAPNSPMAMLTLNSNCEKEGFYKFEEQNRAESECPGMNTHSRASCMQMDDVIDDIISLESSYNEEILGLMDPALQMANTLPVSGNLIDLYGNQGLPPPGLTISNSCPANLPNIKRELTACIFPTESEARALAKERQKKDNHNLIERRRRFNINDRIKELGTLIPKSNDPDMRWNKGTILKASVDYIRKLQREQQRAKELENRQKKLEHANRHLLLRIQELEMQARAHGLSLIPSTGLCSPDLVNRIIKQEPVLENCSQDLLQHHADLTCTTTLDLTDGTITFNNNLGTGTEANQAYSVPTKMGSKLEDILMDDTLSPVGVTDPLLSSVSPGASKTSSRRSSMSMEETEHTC
# [19] = molecular target: T5, Heat shock factor protein 1 (Mus musculus, UniProt P38532); test: decrease of HSF1-responsive luciferase luminescence – cell-based, NIH3T3, dose retest, confirmation (AID 2382); type: functional;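 also: NIH3T3 fibroblasts with HSF1-driven luciferase reporter stressed by proteasome inhibitor MG132; luminescence from HSF1-driven luciferase expression after 8 hours of MG132 stress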
# T5 sequence (P38532 whole entry): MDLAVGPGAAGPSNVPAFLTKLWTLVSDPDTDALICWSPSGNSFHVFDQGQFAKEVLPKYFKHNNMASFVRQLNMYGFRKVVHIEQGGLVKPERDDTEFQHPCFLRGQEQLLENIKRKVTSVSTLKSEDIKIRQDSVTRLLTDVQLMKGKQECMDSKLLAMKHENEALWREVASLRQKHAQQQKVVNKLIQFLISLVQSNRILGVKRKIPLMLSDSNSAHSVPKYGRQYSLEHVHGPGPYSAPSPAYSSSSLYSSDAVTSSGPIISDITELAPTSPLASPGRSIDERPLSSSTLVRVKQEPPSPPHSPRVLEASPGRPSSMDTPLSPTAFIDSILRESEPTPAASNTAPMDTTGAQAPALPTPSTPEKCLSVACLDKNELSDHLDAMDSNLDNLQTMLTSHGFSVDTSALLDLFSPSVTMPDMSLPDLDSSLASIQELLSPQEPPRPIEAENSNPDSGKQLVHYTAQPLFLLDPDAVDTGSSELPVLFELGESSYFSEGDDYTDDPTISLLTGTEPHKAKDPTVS
# [20] = HEK-293T viability loss after treatment – luminescence, T-cell screen hits, cytotoxicity control for TCR NF-kB inhibitor project, dose response (AID 489026); type: functional, cell-based;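 also: cells exposed to compound about 14 hours before the viability readout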
# [21] = tested on: INS1; test: INS-1E survival protection against cytokine death – cell-based, luminescence, retest, dose response (AID 449756); type: functional; details: Rattus norvegicus;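 also: cell death triggered by IL-1 beta plus TNF-alpha plus IFN-gamma mixture; protective hits raise ATP signal compared with cytokine alone wells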
# Large T antigen, sequence (P03070 whole entry): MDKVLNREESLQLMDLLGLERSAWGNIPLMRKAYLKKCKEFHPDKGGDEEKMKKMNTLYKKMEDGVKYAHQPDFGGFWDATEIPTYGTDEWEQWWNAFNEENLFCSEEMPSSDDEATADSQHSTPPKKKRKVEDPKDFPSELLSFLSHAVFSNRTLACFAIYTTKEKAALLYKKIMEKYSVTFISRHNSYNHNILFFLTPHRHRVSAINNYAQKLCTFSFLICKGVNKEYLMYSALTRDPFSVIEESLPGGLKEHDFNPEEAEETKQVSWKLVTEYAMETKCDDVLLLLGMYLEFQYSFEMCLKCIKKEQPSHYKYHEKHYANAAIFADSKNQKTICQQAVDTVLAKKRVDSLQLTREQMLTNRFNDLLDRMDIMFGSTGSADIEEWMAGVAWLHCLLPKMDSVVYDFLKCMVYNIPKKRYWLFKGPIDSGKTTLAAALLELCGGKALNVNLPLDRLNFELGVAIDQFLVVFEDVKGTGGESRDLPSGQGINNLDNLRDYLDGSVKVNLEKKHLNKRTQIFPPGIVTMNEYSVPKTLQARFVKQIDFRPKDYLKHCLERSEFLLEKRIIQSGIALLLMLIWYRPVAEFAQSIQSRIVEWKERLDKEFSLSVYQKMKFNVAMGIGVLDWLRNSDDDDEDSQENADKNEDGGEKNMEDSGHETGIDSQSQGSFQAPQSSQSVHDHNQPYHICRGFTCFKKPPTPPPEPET
# Cytochrome P450 3A4, sequence (P08684 whole entry): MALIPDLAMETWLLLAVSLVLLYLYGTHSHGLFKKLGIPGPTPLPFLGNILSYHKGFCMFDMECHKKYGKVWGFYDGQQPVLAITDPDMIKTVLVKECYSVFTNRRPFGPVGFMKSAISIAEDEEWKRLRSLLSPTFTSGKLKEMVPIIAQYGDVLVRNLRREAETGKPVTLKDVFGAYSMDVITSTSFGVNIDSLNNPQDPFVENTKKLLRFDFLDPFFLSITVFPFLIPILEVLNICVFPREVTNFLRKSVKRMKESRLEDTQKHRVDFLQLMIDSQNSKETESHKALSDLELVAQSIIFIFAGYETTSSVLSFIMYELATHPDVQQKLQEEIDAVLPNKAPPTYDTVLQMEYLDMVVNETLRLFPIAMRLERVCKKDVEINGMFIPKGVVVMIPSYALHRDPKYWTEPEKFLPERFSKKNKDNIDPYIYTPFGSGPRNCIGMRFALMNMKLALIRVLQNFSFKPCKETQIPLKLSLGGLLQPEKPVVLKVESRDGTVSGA
# T2 sequence (P11940 whole entry, the tested form may be a part): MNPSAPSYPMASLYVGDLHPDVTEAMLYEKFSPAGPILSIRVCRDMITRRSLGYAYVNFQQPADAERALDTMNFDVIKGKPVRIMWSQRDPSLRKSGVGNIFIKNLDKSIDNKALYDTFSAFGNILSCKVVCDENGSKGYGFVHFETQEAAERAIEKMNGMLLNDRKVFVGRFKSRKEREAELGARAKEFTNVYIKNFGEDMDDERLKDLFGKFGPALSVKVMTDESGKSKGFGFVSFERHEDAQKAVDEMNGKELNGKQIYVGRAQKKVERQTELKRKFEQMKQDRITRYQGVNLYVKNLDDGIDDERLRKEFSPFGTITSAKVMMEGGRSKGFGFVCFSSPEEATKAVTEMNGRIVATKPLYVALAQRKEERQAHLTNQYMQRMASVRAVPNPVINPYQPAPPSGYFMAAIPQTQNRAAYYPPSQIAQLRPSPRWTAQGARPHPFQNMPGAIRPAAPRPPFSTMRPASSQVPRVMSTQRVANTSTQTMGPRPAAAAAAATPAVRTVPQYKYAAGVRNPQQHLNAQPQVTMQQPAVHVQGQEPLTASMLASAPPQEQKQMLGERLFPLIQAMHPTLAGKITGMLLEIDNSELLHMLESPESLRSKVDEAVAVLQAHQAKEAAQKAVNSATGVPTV
# Cytochrome P450 2D6, sequence (P10635 whole entry): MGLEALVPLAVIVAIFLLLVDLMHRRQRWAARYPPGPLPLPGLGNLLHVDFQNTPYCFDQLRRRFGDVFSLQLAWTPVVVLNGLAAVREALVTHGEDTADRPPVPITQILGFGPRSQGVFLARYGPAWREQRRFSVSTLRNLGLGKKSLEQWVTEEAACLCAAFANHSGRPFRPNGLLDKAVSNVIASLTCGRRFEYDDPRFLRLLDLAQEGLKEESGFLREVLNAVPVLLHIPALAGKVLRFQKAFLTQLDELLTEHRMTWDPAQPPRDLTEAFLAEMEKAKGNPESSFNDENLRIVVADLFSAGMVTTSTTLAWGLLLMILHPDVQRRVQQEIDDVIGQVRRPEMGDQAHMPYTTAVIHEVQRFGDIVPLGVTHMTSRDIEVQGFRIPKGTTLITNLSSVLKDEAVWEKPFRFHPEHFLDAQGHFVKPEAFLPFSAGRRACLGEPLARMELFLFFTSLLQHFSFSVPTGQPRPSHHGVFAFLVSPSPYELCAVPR
# Cytochrome P450 2C19, sequence (P33261 whole entry): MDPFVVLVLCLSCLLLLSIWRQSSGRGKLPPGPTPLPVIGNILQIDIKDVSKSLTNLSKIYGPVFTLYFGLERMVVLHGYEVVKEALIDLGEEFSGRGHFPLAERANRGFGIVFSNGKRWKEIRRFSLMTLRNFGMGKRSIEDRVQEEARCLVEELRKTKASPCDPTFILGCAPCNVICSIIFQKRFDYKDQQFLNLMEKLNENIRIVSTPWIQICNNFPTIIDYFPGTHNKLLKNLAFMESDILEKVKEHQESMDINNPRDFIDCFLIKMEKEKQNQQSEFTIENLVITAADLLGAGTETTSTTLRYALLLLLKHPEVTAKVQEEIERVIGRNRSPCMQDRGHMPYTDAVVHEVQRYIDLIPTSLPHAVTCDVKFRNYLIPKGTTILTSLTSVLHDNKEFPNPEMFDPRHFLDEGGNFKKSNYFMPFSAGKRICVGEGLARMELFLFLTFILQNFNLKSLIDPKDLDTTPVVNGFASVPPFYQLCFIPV
# Glyceraldehyde-3-phosphate dehydrogenase, sequence (P04406 whole entry): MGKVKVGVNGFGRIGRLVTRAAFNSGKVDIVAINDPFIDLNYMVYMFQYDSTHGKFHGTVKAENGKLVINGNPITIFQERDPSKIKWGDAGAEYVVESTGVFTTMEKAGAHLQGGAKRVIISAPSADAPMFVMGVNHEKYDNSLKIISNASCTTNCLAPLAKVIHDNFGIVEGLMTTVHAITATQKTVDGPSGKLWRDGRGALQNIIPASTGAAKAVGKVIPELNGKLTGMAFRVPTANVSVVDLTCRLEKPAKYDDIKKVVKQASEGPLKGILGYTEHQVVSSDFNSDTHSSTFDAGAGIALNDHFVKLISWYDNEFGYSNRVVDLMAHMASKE
smiles,measurement,setting,value
O=C1C=C(Nc2ccc(O)cc2)CC(c2ccco2)C1 (centres undefined),IC50,[1],19.6 µM (active)
same,IC50,[2],9.14 µM (active)
COc1cc(/C=C(\C#N)c2nc3ccccc3n2C)cc(OC)c1O,IC50,[2],9.81 µM (active)
O=C1C(Cl)=C(N2CCN(c3ccccc3)CC2)C(=O)N1c1ccc(Cl)nc1,IC50,[3],> 50 µM (inconclusive)
COc1ccc(Sc2nc(-c3ccccc3)ncc2OC)cc1,EC50,[4],18.3 µM (active)
same,EC50,[5],16 µM (active)
same,EC50,[6],> 120 µM (not active)
CCN1CCCC1CNC(=O)C(=O)Nc1ccc(OC)cc1 (centres undefined),AC50,[7],inconclusive
same,AC50,[8],inconclusive
CSc1nsc(SCC(=O)NCc2ccccc2)n1,IC50,[9],> 66 µM (inactive)
same,IC50,[10],> 66 µM (inactive)
Cc1ccc(-c2nnc(C)c(N3CCCC3)n2)cc1,IC50,[11],13.2 µM (active)
CCO[C@H]1OC(C(=O)Nc2ccccc2)=C[C@@H](c2ccc(Br)cc2)[C@@H]1CCCO,EC50,[4],> 120 µM (not active)
same,CC50,[12],17.6 µM (active)
same,EC50,[5],> 120 µM (not active)
same,EC50,[6],> 120 µM (not active)
c1ccc(COC2CCCN(Cc3nc(-c4cccs4)no3)C2)nc1 (centres undefined),IC50,[9],> 66 µM (inactive)
same,IC50,[10],> 66 µM (inactive)
O=C(c1ccc2c(c1)OCCO2)C1CCN(S(=O)(=O)c2ccccc2F)CC1,CC50,[12],> 50 µM (active)
same,AC50,[13],5.01 µM (inconclusive)
same,AC50,[14],0.0316 µM (inconclusive)
same,AC50,[8],inconclusive
COC(=O)c1cc2c(C)c(C)c3ccccn3c-2c1C(=O)OC,IC50,[9],> 66 µM (inactive)
same,IC50,[10],> 66 µM (inactive)
same,IC50,[15],47.9 µM (inactive)
Cc1[nH]c(=O)[nH]c(=O)c1N(CCF)CCCl [FLUORODOPAN],GI50,[16],330 µM (inactive)
same,GI50,[17],249 µM (inactive)
CCN1CCN(/C=N/c2nc3c(s2)CCCC3)CC1,AC50,[18],6.42 µM (active)
same,EC50,[19],< 160 nM (active)
same,EC50,[5],7.71 µM (active)
same,EC50,[6],8.93 µM (active)
CCCC(=O)Nc1nc2n(n1)C(c1ccccc1)CC(=O)N2 (centres undefined),AC50,[8],inconclusive
Cc1ccc(C)c(-c2nc3ccc(N)cc3[nH]2)c1,IC50,[2],83.7 µM (active)
Cc1ccc(NC(=O)C2CCN(S(=O)(=O)c3c(C)noc3/C=C/c3ccco3)CC2)nc1,AC50,[18],5.56 µM (active)
O=C(c1cccc(F)c1)N1CCC2(CC1)CCN(c1ncccn1)CC2,AC50,[13],10 µM (inconclusive)
same,AC50,[14],15.8 µM (inconclusive)
same,AC50,[7]; read-out: AC50,39.8 µM (inconclusive)
same,AC50,[8],inconclusive
O=C(Nc1cccc(F)c1)N1CC2(CCN(C(=O)Oc3ccccc3)CC2)C1,AC50,[13],12.6 µM (inconclusive)
same,AC50,[8],inconclusive
Cc1noc(C)c1COc1ccc(C(=O)NNC(=O)c2ccccc2F)cc1,IC50,[20],> 80 µM (inactive)
COc1cccc(-n2nc(-c3ccnn3-c3ccccc3)c(=O)n(C)c2=O)c1,EC50,[4],25.3 µM (active)
same,EC50,[5],> 120 µM (not active)
same,EC50,[6],> 120 µM (not active)
FC(F)(F)c1ccccc1-c1cc(NCc2ccccc2)ncn1,AC50,[14],39.8 µM (inconclusive)
same,AC50,[8],inconclusive
Cn1ncc2c(N3CCN(c4ccc(Cl)c(Cl)c4)CC3)ncnc21,AC50,[21],2.55 µM (active)
same,IC50,[20],> 80 µM (inactive)
CN(C)c1ccc(NS(=O)(=O)c2cccc(Cl)c2)cc1,IC50,[2],28.7 µM (active)
COc1ccc(C2=CC(c3ccc(F)cc3)n3nnnc3N2)cc1 (centres undefined),IC50,[9],> 66 µM (inactive)
same,IC50,[10],> 66 µM (inactive)
CN(C)C(=O)c1c(-c2ccccc2)oc2ccc(O)cc12,IC50,[2],46.6 µM (active)
CCC(CC)C(=O)c1c[nH]c(C(=O)NCCCN2CCOCC2)c1,AC50,[13],25.1 µM (inconclusive)
same,AC50,[8],inconclusive
CN(C)C1=C(Cl)C(=O)N(c2ccc(Cl)nc2)C1=O,IC50,[3],> 50 µM (inconclusive)
COc1ccc(-n2ccnc(SCC(=O)NC3CCCC3)c2=O)cc1,IC50,[9],> 66 µM (inactive)
same,IC50,[10],> 66 µM (inactive)
Cc1ccc(N2C(=O)CC(Sc3ccccc3C(=O)O)C2=O)c([N+](=O)[O-])c1 (centres undefined),IC50,[9],> 66 µM (inactive)
same,IC50,[10],> 66 µM (inactive)

# Reference: ChEMBL document CHEMBL1201862, “PubChem BioAssay data set” (2004)
